Columns and labels:
Format in all cases: functional
K562 = test: Growth inhibition of human K562 cells at 10 uM after 48 hrs by SRB assay; conditions: K562, 48 h, read-out: GI
SR = test: Growth inhibition of human SR cells at 10 uM after 48 hrs by SRB assay; conditions: read-out: GI
EKVX = test: Growth inhibition of human EKVX cells at 10 uM after 48 hrs by SRB assay; conditions: read-out: GI
[1] = Growth inhibition of human HOP62 cells at 10 uM after 48 hrs by SRB assay; conditions: HOP-62, 48 h, read-out: GI
[2] = Growth inhibition of human HOP92 cells at 10 uM after 48 hrs by SRB assay; conditions: HOP-92, 48 h, read-out: GI
NCI-H226 = test: Growth inhibition of human NCI-H226 cells at 10 uM after 48 hrs by SRB assay; conditions: NCI-H226, 48 h, read-out: GI
NCI-H23 = test: Growth inhibition of human NCI-H23 cells at 10 uM after 48 hrs by SRB assay; conditions: NCI-H23, 48 h, read-out: GI
NCI-H322M = test: Growth inhibition of human NCI-H322M cells at 10 uM after 48 hrs by SRB assay; conditions: read-out: GI
NCI-H460 = test: Growth inhibition of human NCI-H460 cells at 10 uM after 48 hrs by SRB assay; conditions: NCI-H460, 48 h, read-out: GI
NCI-H522 = test: Growth inhibition of human NCI-H522 cells at 10 uM after 48 hrs by SRB assay; conditions: NCI-H522, 48 h, read-out: GI
[3] = Growth inhibition of human COLO205 cells at 10 uM after 48 hrs by SRB assay; conditions: COLO 205, 48 h, read-out: GI
[4] = Growth inhibition of human HCC2998 cells at 10 uM after 48 hrs by SRB assay; conditions: HCC 2998, 48 h, read-out: GI
[5] = Growth inhibition of human HCT116 cells at 10 uM after 48 hrs by SRB assay; conditions: HCT-116, 48 h, read-out: GI
[6] = Growth inhibition of human HCT15 cells at 10 uM after 48 hrs by SRB assay; conditions: HCT-15, 48 h, read-out: GI
HT-29 = test: Growth inhibition of human HT-29 cells at 10 uM after 48 hrs by SRB assay; conditions: HT-29, 48 h, read-out: GI
KM12 = test: Growth inhibition of human KM12 cells at 10 uM after 48 hrs by SRB assay; conditions: KM12, 48 h, read-out: GI
[7] = Growth inhibition of human SF539 cells at 10 uM after 48 hrs by SRB assay; conditions: SF-539, 48 h, read-out: GI
U-251 = test: Growth inhibition of human U251 cells at 10 uM after 48 hrs by SRB assay; conditions: U-251, 48 h, read-out: GI
[8] = Growth inhibition of human LOXIMVI cells at 10 uM after 48 hrs by SRB assay; conditions: LOX IMVI, read-out: GI
Malme-3M = test: Growth inhibition of human MALME-3M cells at 10 uM after 48 hrs by SRB assay; conditions: read-out: GI
M14 = test: Growth inhibition of human M14 cells at 10 uM after 48 hrs by SRB assay; conditions: M14, 48 h, read-out: GI
SK-MEL-28 = test: Growth inhibition of human SK-MEL-28 cells at 10 uM after 48 hrs by SRB assay; conditions: SK-MEL-28, 48 h, read-out: GI
SK-MEL-5 = test: Growth inhibition of human SK-MEL-5 cells at 10 uM after 48 hrs by SRB assay; conditions: SK-MEL-5, 48 h, read-out: GI
[9] = Growth inhibition of human UACC62 cells at 10 uM after 48 hrs by SRB assay; conditions: UACC-62, 48 h, read-out: GI
[10] = Growth inhibition of human IGROV1 cells at 10 uM after 48 hrs by SRB assay; conditions: IGROV-1, 48 h, read-out: GI
[11] = Growth inhibition of human OVCAR3 cells at 10 uM after 48 hrs by SRB assay; conditions: OVCAR-3, 48 h, read-out: GI
[12] = Growth inhibition of human OVCAR4 cells at 10 uM after 48 hrs by SRB assay; conditions: OVCAR-4, 48 h, read-out: GI
[13] = Growth inhibition of human OVCAR5 cells at 10 uM after 48 hrs by SRB assay; conditions: OVCAR-5, 48 h, read-out: GI
[14] = Growth inhibition of human SKOV3 cells at 10 uM after 48 hrs by SRB assay; conditions: SK-OV-3, 48 h, read-out: GI
786-0 = test: Growth inhibition of human 786-0 cells at 10 uM after 48 hrs by SRB assay; conditions: 786-0, 48 h, read-out: GI
A498 = test: Growth inhibition of human A498 cells at 10 uM after 48 hrs by SRB assay; conditions: A498, 48 h, read-out: GI
ACHN = test: Growth inhibition of human ACHN cells at 10 uM after 48 hrs by SRB assay; conditions: read-out: GI
[15] = Growth inhibition of human Caki1 cells at 10 uM after 48 hrs by SRB assay; conditions: CAKI-1, 48 h, read-out: GI
[16] = Growth inhibition of human RXF393 cells at 10 uM after 48 hrs by SRB assay; conditions: RXF 393, 48 h, read-out: GI
SN12C = test: Growth inhibition of human SN12C cells at 10 uM after 48 hrs by SRB assay; conditions: read-out: GI
[17] = Growth inhibition of human TK10 cells at 10 uM after 48 hrs by SRB assay; conditions: TK-10, 48 h, read-out: GI
[18] = Growth inhibition of human UO31 cells at 10 uM after 48 hrs by SRB assay; conditions: UO-31, 48 h, read-out: GI
[19] = Growth inhibition of human PC3 cells at 10 uM after 48 hrs by SRB assay; conditions: PC-3, 48 h, read-out: GI
[20] = Growth inhibition of human DU145 cells at 10 uM after 48 hrs by SRB assay; conditions: DU-145, 48 h, read-out: GI
MCF7 = test: Growth inhibition of human MCF7 cells at 10 uM after 48 hrs by SRB assay; conditions: MCF7, 48 h, read-out: GI
[21] = Growth inhibition of human Hs 578T cells at 10 uM after 48 hrs by SRB assay; conditions: read-out: GI
T47D = test: Growth inhibition of human T47D cells at 10 uM after 48 hrs by SRB assay; conditions: read-out: GI
MDA-MB-468 = test: Growth inhibition of human MDA-MB-468 cells at 10 uM after 48 hrs by SRB assay; conditions: MDA-MB-468, 48 h, read-out: GI

## COc1ccc(Nc2nccc(Nc3ccc4[nH]ncc4c3)n2)cc1
K562
  inhibition of growth at 10 µM: 95%
SR
  inhibition of growth at 10 µM: 96%
EKVX
  inhibition of growth at 10 µM: 49%
[1]
  inhibition of growth at 10 µM: 51%
[2]
  inhibition of growth at 10 µM: 101%
NCI-H226
  inhibition of growth at 10 µM: 72%
NCI-H23
  inhibition of growth at 10 µM: 60%
NCI-H322M
  inhibition of growth at 10 µM: 37%
NCI-H460
  inhibition of growth at 10 µM: 75%
NCI-H522
  inhibition of growth at 10 µM: 81%
[3]
  inhibition of growth at 10 µM: 74%
[4]
  inhibition of growth at 10 µM: 37%
[5]
  inhibition of growth at 10 µM: 81%
[6]
  inhibition of growth at 10 µM: 94%
HT-29
  inhibition of growth at 10 µM: 88%
KM12
  inhibition of growth at 10 µM: 90%
[7]
  inhibition of growth at 10 µM: 31%
U-251
  inhibition of growth at 10 µM: 64%
[8]
  inhibition of growth at 10 µM: 81%
Malme-3M
  inhibition of growth at 10 µM: 24%
M14
  inhibition of growth at 10 µM: 67%
SK-MEL-28
  inhibition of growth at 10 µM: 34%
SK-MEL-5
  inhibition of growth at 10 µM: 98%
[9]
  inhibition of growth at 10 µM: 61%
[10]
  inhibition of growth at 10 µM: 49%
[11]
  inhibition of growth at 10 µM: 51%
[12]
  inhibition of growth at 10 µM: 67%
[13]
  inhibition of growth at 10 µM: 48%
[14]
  inhibition of growth at 10 µM: 48%
786-0
  inhibition of growth at 10 µM: 56%
A498
  inhibition of growth at 10 µM: 63%
ACHN
  inhibition of growth at 10 µM: 71%
[15]
  inhibition of growth at 10 µM: 62%
[16]
  inhibition of growth at 10 µM: 68%
SN12C
  inhibition of growth at 10 µM: 57%
[17]
  inhibition of growth at 10 µM: 81%
[18]
  inhibition of growth at 10 µM: 84%
[19]
  inhibition of growth at 10 µM: 87%
[20]
  inhibition of growth at 10 µM: 68%
MCF7
  inhibition of growth at 10 µM: 87%
[21]
  inhibition of growth at 10 µM: 53%
T47D
  inhibition of growth at 10 µM: 104%
MDA-MB-468
  inhibition of growth at 10 µM: 56%

## COc1cccc(Nc2nccc(Nc3ccc4[nH]ncc4c3)n2)c1
K562
  inhibition of growth at 10 µM: 110%
SR
  inhibition of growth at 10 µM: 111%
EKVX
  inhibition of growth at 10 µM: 66%
[1]
  inhibition of growth at 10 µM: 111%
[2]
  inhibition of growth at 10 µM: 111%
NCI-H226
  inhibition of growth at 10 µM: 117%
NCI-H23
  inhibition of growth at 10 µM: 129%
NCI-H322M
  inhibition of growth at 10 µM: 93%
NCI-H460
  inhibition of growth at 10 µM: 168%
NCI-H522
  inhibition of growth at 10 µM: 168%
[3]
  inhibition of growth at 10 µM: 188%
[4]
  inhibition of growth at 10 µM: 107%
[5]
  inhibition of growth at 10 µM: 187%
[6]
  inhibition of growth at 10 µM: 127%
HT-29
  inhibition of growth at 10 µM: 158%
KM12
  inhibition of growth at 10 µM: 144%
[7]
  inhibition of growth at 10 µM: 86%
U-251
  inhibition of growth at 10 µM: 194%
[8]
  inhibition of growth at 10 µM: 167%
Malme-3M
  inhibition of growth at 10 µM: 149%
M14
  inhibition of growth at 10 µM: 174%
SK-MEL-28
  inhibition of growth at 10 µM: 143%
SK-MEL-5
  inhibition of growth at 10 µM: 184%
[9]
  inhibition of growth at 10 µM: 157%
[10]
  inhibition of growth at 10 µM: 124%
[11]
  inhibition of growth at 10 µM: 161%
[12]
  inhibition of growth at 10 µM: 160%
[13]
  inhibition of growth at 10 µM: 67%
[14]
  inhibition of growth at 10 µM: 85%
786-0
  inhibition of growth at 10 µM: 112%
A498
  inhibition of growth at 10 µM: 87%
ACHN
  inhibition of growth at 10 µM: 103%
[15]
  inhibition of growth at 10 µM: 131%
[16]
  inhibition of growth at 10 µM: 82%
SN12C
  inhibition of growth at 10 µM: 80%
[17]
  inhibition of growth at 10 µM: 178%
[18]
  inhibition of growth at 10 µM: 162%
[19]
  inhibition of growth at 10 µM: 181%
[20]
  inhibition of growth at 10 µM: 159%
MCF7
  inhibition of growth at 10 µM: 151%
[21]
  inhibition of growth at 10 µM: 76%
T47D
  inhibition of growth at 10 µM: 152%
MDA-MB-468
  inhibition of growth at 10 µM: 145%

From ChEMBL document CHEMBL3817755, “Design, synthesis and biological evaluation of indazolepyrimidine based derivatives as anticancer agents with anti-angiogenic and antiproliferative activities” (Medchemcomm, 2016)
